Results published in the PolyMetriX glass transition set.
± gives the standard deviation of the reports.

| glass transition temperature [°C] | Compound |
| --- | --- |
| 232.00 | *CCC(=O)Nc1ccc(Oc2ccc(NC(=O)CCN3C(=O)c4ccc(C(=O)c5ccc6c(c5)C(=O)N(*)C6=O)cc4C3=O)cc2)cc1 (repeat unit) |
| 285.00 | *Oc1ccc(C2(c3ccc(OC(=O)c4ccc(C(*)=O)cc4)cc3)c3ccccc3-c3ccccc32)cc1 (repeat unit) |
| 100.60 | *CC(COc1ccc(C(C)(C)c2ccc(O*)cc2)cc1)OC(=O)/C=C/c1ccccc1 (repeat unit) |
| 64.00 | *CC(*)c1cc(C(=O)OCCCCCC)ccc1-c1ccc(OCCCCCCCC)cc1 (repeat unit) |
| -55.00 | *O[Si](*)(CCCOCCOC)CCCOCCOC (repeat unit) |
| 52.00 | *CCCS(=O)(=O)CCCS(=O)(=O)CCCOC(=O)c1ccccc1C(=O)O* (repeat unit) |
| 58.00 | *C(=O)OCCCCCCCCCCOC(=O)c1ccc(N2C(=O)c3ccc(*)cc3C2=O)cc1 (repeat unit) |
| 265.00 | *c1c(C)cc(-c2cc(C)c(N3C(=O)c4cccc(Oc5ccc(C(C)(C)c6ccc(Oc7cccc8c7C(=O)N(*)C8=O)cc6)cc5)c4C3=O)c(C)c2)cc1C (repeat unit) |
| 230.00 | *c1ccc(Oc2ccc(-c3ccc(Oc4ccc(-c5nc(-c6ccccn6)nnc5*)cc4)cc3)cc2)cc1 (repeat unit) |
| 50.00 | *Nc1ccc(Cc2ccc(NC(=O)NCCCCCCCCNC(*)=O)cc2)cc1 (repeat unit) |
| 298.20 | *Oc1ccc(S(=O)(=O)c2ccc(Oc3c(C)cc(-c4cc(C)c(*)c(C)c4Br)c(Br)c3C)cc2)cc1 (repeat unit) |
| 50.00 | *CC(OCC)C(C(=O)OC)C(*)C(=O)OC (repeat unit) |
| 251.00 | *Oc1ccc(S(=O)(=O)c2ccc(Oc3ccc(-c4ccc(-c5ccc(*)cc5)cc4)cc3)cc2)cc1 (repeat unit) |
| 145.00 | *CC(*)(C)C(=O)OC1CCC2CCCCC2C1 (repeat unit) |
| 90.00 | *CC(*)c1ccc(C(=O)OCC(C)C)cc1 (repeat unit) |
| 266.50 | *c1ccc2c(c1)C(=O)N(c1cc(C(c3ccc(OC(C)=O)c(N4C(=O)c5ccc(C(*)(C(F)(F)F)C(F)(F)F)cc5C4=O)c3)(C(F)(F)F)C(F)(F)F)ccc1OC(C)=O)C2=O (repeat unit) |
| 47.00 | *OC(=O)CNC(=O)CNC(=O)CCCCCCCCC(=O)NCC(=O)NCC(=O)OC1COC2C(*)COC12 (repeat unit) |
| 93.00 | *CCCCCCCCCCCC(=O)Oc1ccc(C(C)(C)c2ccc(OC(=O)c3ccc4c(c3)C(=O)N(*)C4=O)cc2)cc1 (repeat unit) |
| 178.00 | *Nc1cccc2c(NC(=O)Nc3cc(NC(*)=O)cc(C(=O)Nc4ccc5c(c4)C(=O)c4ccccc4C5=O)c3)cccc12 (repeat unit) |
| 74.00 | *Oc1ccc(OC(=O)Oc2ccc(C(*)=O)cc2)cc1 (repeat unit) |
| 228.50 | *Oc1ccc(NC(=O)c2cccc(C(=O)Nc3ccc(Oc4ccc(C(c5ccc(*)cc5)(C(F)(F)F)C(F)(F)F)cc4)cc3)c2)cc1 (repeat unit) |
| 60.00 | *Oc1c(C)cc(*)cc1C(C)CCCCC (repeat unit) |
| 30.00 | *Oc1ccc(C(=O)OCCOCCOCCOCCOC(=O)c2ccc(OC(=O)c3ccc(C(*)=O)cc3)cc2)cc1 (repeat unit) |
| 110.00 | */C=C(/*)c1c(F)c(F)c(CCCC)c(F)c1F (repeat unit) |

| glass transition temperature [°C] | Compound |
| --- | --- |
| 64.00 | *CC(*)C(=O)Oc1c(F)c(F)c(F)c(F)c1F (repeat unit) |
| -83.00 | *O[Si](C)(C)O[Si](C)(C)OC(C)CCC(*)C (repeat unit) |
| 182.50 | *c1ccc(Oc2ccc(C3(c4ccc(Oc5ccc(-c6cccc(*)n6)cc5C(F)(F)F)cc4)c4ccccc4-c4ccccc43)cc2)c(C(F)(F)F)c1 (repeat unit) |
| 74.00 | *CC(*)(C)C(=O)Oc1ccc(C(=O)Oc2ccc(Oc3ccccc3)cc2)cc1 (repeat unit) |
| 179.00 | *C(=O)Oc1ccc(OC(=O)c2ccc3c(c2)C(=O)N(c2ccc(S(=O)(=O)c4ccc(N5C(=O)c6ccc(*)cc6C5=O)cc4)cc2)C3=O)c(C(C)(C)C)c1 (repeat unit) |
| 81.00 | *COC(=O)Nc1ccc(Cc2ccc(NC(=O)OCc3ccc(*)o3)cc2)cc1 (repeat unit) |
| 297.50 ± 18 | *C(=O)c1ccc2c(c1)C(=O)N(c1ccc(Cc3ccc(N4C(=O)c5ccc(*)cc5C4=O)c(C)c3)cc1C)C2=O (repeat unit) |
| 76.00 | *CC(O)CN(C)S(=O)(=O)c1cccc(S(=O)(=O)N(C)CC(O)COc2ccc(C(C)(C)c3ccc(O*)cc3)cc2)c1 (repeat unit) |
| -71.00 | *O[Si](C=C)(C=C)O[Si](C)(C)c1ccc([Si](*)(C)C)cc1 (repeat unit) |
| 135.00 | *CCCCCOc1cccc(NC(=O)c2ccc(C(=O)Nc3cccc(O*)c3)cc2)c1 (repeat unit) |
| 315.00 | *c1ccc(C(c2ccccc2)c2ccc(N3C(=O)c4ccc(-c5ccc6c(c5)C(=O)N(*)C6=O)cc4C3=O)cc2)cc1 (repeat unit) |
| -2.00 | *O[Si](C)(C)c1cccc(C(F)(F)C(F)(F)c2cccc([Si](*)(C)C)c2)c1 (repeat unit) |
| 200.00 | */C(=C(/*)c1ccc(CCCC)cc1)c1ccccc1 (repeat unit) |
| -18.00 | *CCCCCCCCCCCCCCCCOC(=O)CC/C=C/CCC(=O)O* (repeat unit) |
| 230.00 | *c1ccc(Oc2ccc(-c3ccc(Oc4ccc(N5C(=O)c6ccc(Oc7ccc8cc(Oc9ccc%10c(c9)C(=O)N(*)C%10=O)ccc8c7)cc6C5=O)cc4)cc3)cc2)cc1 (repeat unit) |
| 262.00 | *c1ccc2c(c1)C(=O)N(c1cccc(C(O)c3cccc(N4C(=O)c5ccc(C(*)(C(F)(F)F)C(F)(F)F)cc5C4=O)c3)c1)C2=O (repeat unit) |
| 317.50 | *c1ccc(C(=O)Nc2ccc(Oc3ccc(NC(=O)c4ccc(Oc5ccc(-c6nn(*)c(=O)c7ccccc67)c6ccccc56)cc4)cc3)cc2)cc1 (repeat unit) |
| 83.40 | */C=C/C1CC(*)C(C(=O)OC(C)(C)C)C1C(=O)OC(C)(C)C (repeat unit) |
| 250.00 | *Oc1ccc(NC(=O)c2ccc(S(=O)(=O)c3ccc(C(=O)Nc4ccc(Oc5ccc(C(c6ccc(*)cc6)(C(F)(F)F)C(F)(F)F)cc5)cc4)cc3)cc2)cc1 (repeat unit) |
| 201.00 | *Oc1ccc(C2(c3ccc(Oc4ccc(C(=O)c5ccc(*)cc5)cc4)c(C)c3)CCC3CCCCC3C2)cc1C (repeat unit) |
| 260.50 | *C(=O)c1cc(C(=O)c2ccc3c(c2)C(=O)N(c2ccc(C(c4ccc(N5C(=O)c6ccc(*)cc6C5=O)cc4)(C(F)(F)F)C(F)(F)F)cc2)C3=O)cc(-c2ccccc2)c1 (repeat unit) |
| 302.00 | *C(=O)c1ccc2c(c1)C(=O)N(c1ccc(Cc3ccc(Cc4ccc(Cc5ccc(N6C(=O)c7ccc(*)cc7C6=O)cc5)cc4)cc3)cc1)C2=O (repeat unit) |
| 143.00 | *Oc1ccc2ccc(Oc3ccc(C(=O)Nc4ccc(Oc5ccc(C(C)(C)c6ccc(Oc7ccc(NC(=O)c8ccc(*)cc8)cc7)cc6)cc5)cc4)cc3)cc2c1 (repeat unit) |

| Compound | glass transition temperature [°C] |
| --- | --- |
| *CC(*)C(=O)OC(C)(C)C (repeat unit) [Poly(t-butyl acrylate)] | 41 ± 0.9 |
| *O[Si](*)(C)C (repeat unit) [Poly(dimethylsiloxane)] | -124 ± 2 |
| *CC(O)COc1ccc(O*)cc1 (repeat unit) | 60.00 |
| *C1Oc2ccccc2C1* (repeat unit) | 65.20 |
| *CCNC(=O)c1ccccc1O* (repeat unit) | 84.00 |
| *CC(*)c1ccc(C(C)=O)cc1 (repeat unit) | 115.50 |
| *C(=O)Nc1ccc(-c2cc(-c3ccccc3)cc(-c3ccc(NC(=O)c4ccc5c(c4)C(=O)N(c4cccc(P(=O)(c6ccccc6)c6cccc(N7C(=O)c8ccc(*)cc8C7=O)c6)c4)C5=O)cc3)n2)cc1 (repeat unit) | 258.00 |
| *C([2H])([2H])C(*)([2H])C([2H])([2H])[2H] (repeat unit) | 0.00 |
| */C=C/C(*)(C)C (repeat unit) | -9.00 |
| *CC(*)C(=O)OCCO (repeat unit) | 20.70 |
| *Oc1ccc(P(=O)(c2ccccc2)c2ccc(Oc3ccc(-c4ccc(*)cc4)cc3)cc2)cc1 (repeat unit) | 234.00 |
| *c1ccc([Si](C)(C)[Si](*)(C)C)s1 (repeat unit) | 15.00 |
| *Oc1ccc(C(c2ccc(Oc3ccc(C(=O)c4ccc(P(=O)(c5ccccc5)c5ccc(C(=O)c6ccc(*)cc6)cc5)cc4)cc3)cc2)(C(F)(F)F)C(F)(F)F)cc1 (repeat unit) | 207.00 |
| */C(C)=C(/*)CCCCC (repeat unit) | 180.00 |
| *Oc1ccc2cc(C(*)=O)ccc2c1 (repeat unit) | 147.00 |
| *CC1CC(*)OCO1 (repeat unit) [Poly(vinyl formal) ] | 104 ± 21 |
| *Oc1ccc(C(C)(C)c2ccc(OC(=O)OCCN(CCOC(*)=O)c3ccc4[nH]c5ccccc5c4c3)cc2)cc1 (repeat unit) | 90.00 |
| *CC(*)c1ccc(I)cc1 (repeat unit) | 158.00 |
| *CC(*)(C)C(=O)OCCO[N+](=O)[O-] (repeat unit) | 55.00 |
| *CC(*)C(=O)OCCC (repeat unit) [Poly(n-propyl acrylate) ] | -41.33 ± 4 |
| *CC(COCC=C)O* (repeat unit) [poly(allyl glycidyl ether)] | -35.33 ± 57 |
